# Measured values taken from US20220125900A1, “NEOANTIGENS IN CANCER” (priority 2019, published 2022).
# Tested on: IFNγ response of splenocytes
# Assay: IFNγ ELISpot assay on splenocytes of vaccinated Balb/c mice
# Format: in vivo
# Conditions: splenocytes of mice vaccinated with Ancer-selected CT26 Neoantigen Peptides+Poly-ICLC, stimulated overnight; positive = >50 SFC/million over background and stimulation index >2-fold
# Description: Balb/c mice were separated into three groups: A) Vehicle control; B) Ancer™-selected CT26 Neoantigen Peptides+adjuvant; C) Ancer™-selected CT26 Neoantigen Peptides+JANUSMATRIX™ MHC class II selected peptides+adjuvant. All vaccines were formulated with the addition of the adjuvant Poly-ICLC. Poly-ICLC, also known as Hiltonol, is a synthetic double-stranded RNA (dsRNA) agonist for pattern recognition receptors (PRRs), and TLR3 agonist. Groups A, B, and C received an initial vaccination with subsequent boosts of vaccine at 2- and 4-weeks post initial vaccination. All mice are sacrificed at 7-10 days after the final boost and spleens were harvested for splenocyte isolation and IFNγ ELISpot assay.
# Group A: 50 ug Poly-ICLC in 200 uL
# Group B: 20 Ancer™-selected CT26 Neoantigen Peptides at 5 ug/peptide, 100 ug total peptide, 50 ug Poly-ICLC, 200 uL […]
# Isolated splenocytes were plated and stimulated with Ancer™-selected CT26 Neoantigen Peptides (CT26 pool), JANUSMATRIX™ selected peptides (CT26-Treg_pool), class I peptide pool, as well as individual Ancer™-selected CT26 Neoantigen peptide CT26-1 (CT26_peptide 1) and CT26-20 ([…]). Plates were incubated overnight and then read. […] Statistical significance was determined by Student's T-test; per mouse—antigen vs. no antigen stimulus, as well as group comparisons (p<0.05).
substance,measurement,value
Ac-LQARLTSYETLK-NH2 [CT26-1],epitope-specific IFNγ response on recall stimulation (immunogenic),significant epitope-specific IFNγ response
